This is an account of results in paper PMC7018514 (eLife, 2020).

For assay [1], the target named is T1, human IMPDH2 (Homo sapiens, UniProt P12268).
T1 construct: full-length hIMPDH2 (SUMO tag removed)
The experiment in a line: cryo-EM structures ([…] Å fully compressed filament segment; […] Å free octamer), plus GTP inhibition kinetics of purified enzyme. The format is biochemical.

Assay [2] addresses T2, human IMPDH2 (Homo sapiens, UniProt P12268, Y12A).
T2 construct: full-length hIMPDH2, non-assembling mutant
The experiment in a line: NADH absorbance ([…] nm) activity assay with GTP dose-response; […] inhibited at […] GTP. The format is biochemical.

In assay [3] the target is T1, human IMPDH2. The experiment in a line: cryo-EM structure ([…] Å filament assembly interface); NAD+ saturation kinetics. The format is binding.

T1 sequence (P12268 2-514): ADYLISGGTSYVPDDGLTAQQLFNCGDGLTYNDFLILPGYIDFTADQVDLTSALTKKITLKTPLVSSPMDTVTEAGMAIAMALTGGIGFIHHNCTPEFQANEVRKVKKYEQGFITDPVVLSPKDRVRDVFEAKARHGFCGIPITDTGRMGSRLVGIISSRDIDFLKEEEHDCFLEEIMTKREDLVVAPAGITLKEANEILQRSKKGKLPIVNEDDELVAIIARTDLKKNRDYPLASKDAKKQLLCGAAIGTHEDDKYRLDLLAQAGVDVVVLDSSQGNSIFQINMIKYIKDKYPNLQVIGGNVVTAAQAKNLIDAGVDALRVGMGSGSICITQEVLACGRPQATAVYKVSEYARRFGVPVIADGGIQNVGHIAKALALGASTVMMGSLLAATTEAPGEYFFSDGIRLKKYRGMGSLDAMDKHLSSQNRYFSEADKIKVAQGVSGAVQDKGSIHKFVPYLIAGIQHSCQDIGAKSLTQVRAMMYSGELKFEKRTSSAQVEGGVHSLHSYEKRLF
T2 sequence (P12268 2-514 Y12A): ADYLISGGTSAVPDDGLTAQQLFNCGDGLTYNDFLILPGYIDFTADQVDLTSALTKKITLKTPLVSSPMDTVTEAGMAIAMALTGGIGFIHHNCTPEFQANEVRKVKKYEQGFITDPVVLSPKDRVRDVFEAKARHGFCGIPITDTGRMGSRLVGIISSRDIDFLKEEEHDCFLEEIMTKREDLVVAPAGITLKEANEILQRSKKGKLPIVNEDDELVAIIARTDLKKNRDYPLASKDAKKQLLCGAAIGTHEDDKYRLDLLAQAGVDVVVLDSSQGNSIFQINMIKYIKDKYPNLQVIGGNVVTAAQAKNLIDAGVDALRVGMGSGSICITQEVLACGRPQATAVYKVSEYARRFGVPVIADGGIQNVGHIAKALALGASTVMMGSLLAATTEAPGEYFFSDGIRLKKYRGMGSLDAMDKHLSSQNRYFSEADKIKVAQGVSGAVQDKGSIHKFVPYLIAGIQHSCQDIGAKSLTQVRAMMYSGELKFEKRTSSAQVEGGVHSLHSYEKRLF

Turning to `Nc1nc2c(ncn2[C@@H]2O[C@H](COP(=O)(O)OP(=O)(O)OP(=O)(O)O)[C@@H](O)[C@H]2O)c(=O)[nH]1` [GTP], the half-maximal inhibitory concentration (IC50) is greater than 2 mM at human IMPDH2 [1] and less than 2 mM at human IMPDH2 [2].
For `NC(=O)c1ccc[n+]([C@@H]2O[C@H](COP(=O)([O-])OP(=O)(O)OC[C@H]3O[C@@H](n4cnc5c(N)ncnc54)[C@H](O)[C@@H]3O)[C@@H](O)[C@H]2O)c1` [NAD+], at human IMPDH2 [3], the “cryo-EM structure (3.0 Å filament assembly interface); NAD+ saturation kinetics” value is “There is strong density in the both the IMP and NAD^+ binding sites”.

Usually IC50 stands for the concentration at which inhibition is half-maximal.
